Measurements: the supplement of paper PMC11061612

What was measured:
AZD1775 = compound: C=CCn1c(=O)c2cnc(Nc3ccc(N4CCN(C)CC4)cc3)nc2n1-c1cccc(C(C)(C)O)n1 [AZD1775]; conditions: max 3 µM
Outline: (§1)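 Cancer cell lines were seeded in 1536-well plates in 7.5 μl DMEM/F12 or RPMI with 10% FBS, held 24 hours at 37°C and 5% CO2, then dosed for 72 hours (final DMSO typically 0.2%). Viability was read by CellTiter-Glo 2.0 luminescence and scaled between blank-well and DMSO-well means. The single-agent IC50 comes from dose responses fitted to a two-parameter logistic curve with a non-linear mixed effects model.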

Trametinib = compound: CC(=O)Nc1cccc(-n2c(=O)n(C3CC3)c(=O)c3c(Nc4ccc(I)cc4F)n(C)c(=O)c(C)c32)c1 [Trametinib]; conditions: max 1 µM
Outline: as §1

AZD7648 = compound: Cc1cc2ncnn2cc1Nc1ncc2c(n1)n(C1CCOCC1)c(=O)n2C [AZD7648]; conditions: max 10 µM
Outline: as §1

5-Fluorouracil = compound: O=c1[nH]cc(F)c(=O)[nH]1 [5-Fluorouracil]; conditions: max 20 µM
Outline: as §1

Gemcitabine = compound: Nc1ccn([C@@H]2O[C@H](CO)[C@@H](O)C2(F)F)c(=O)n1 [Gemcitabine]; conditions: max 0.3 µM
Outline: as §1

Etoposide = compound: COc1cc([C@@H]2c3cc4c(cc3[C@@H](O[C@@H]3O[C@@H]5CO[C@@H](C)O[C@H]5[C@H](O)[C@H]3O)[C@H]3COC(=O)[C@H]23)OCO4)cc(OC)c1O [Etoposide]; conditions: max 10 µM
Outline: as §1

AZD5363 = compound: C1CN(CCC1(C(=O)N[C@@H](CCO)C2=CC=C(C=C2)Cl)N)C3=NC=NC4=C3C=CN4 [AZD5363]; conditions: max 10 µM
Outline: as §1

Taselisib = compound: Cc1nc(-c2cn3c(n2)-c2ccc(-c4cnn(C(C)(C)C(N)=O)c4)cc2OCC3)n(C(C)C)n1 [Taselisib]; conditions: max 10 µM
Outline: as §1

Palbociclib = compound: CC(=O)c1c(C)c2cnc(Nc3ccc(N4CCNCC4)cn3)nc2n(C2CCCC2)c1=O [Palbociclib]; conditions: max 10 µM
Outline: as §1

SN-38 = compound: CCc1c2c(nc3ccc(O)cc13)-c1cc3c(c(=O)n1C2)COC(=O)[C@]3(O)CC [SN-38]; conditions: max 0.3 µM
Outline: as §1

SG3199 = compound: CC1=CN2[C@@H](C1)C=NC3=CC(=C(C=C3C2=O)OC)OCCCCCOC4=C(C=C5C(=C4)N=C[C@@H]6CC(=CN6C5=O)C)OC [SG3199]; conditions: max 0.001 µM
Outline: as §1

Gefitinib = compound: COc1cc2ncnc(Nc3ccc(F)c(Cl)c3)c2cc1OCCCN1CCOCC1 [Gefitinib]; conditions: max 10 µM
Outline: as §1

AZD8186 = compound: C[C@@H](Nc1cc(F)cc(F)c1)c1cc(C(=O)N(C)C)cc2c(=O)cc(N3CCOCC3)oc12 [AZD8186]; conditions: max 10 µM
Outline: as §1

Dasatinib = compound: CC1=C(C(=CC=C1)Cl)NC(=O)C2=CN=C(S2)NC3=CC(=NC(=N3)C)N4CCN(CC4)CCO [Dasatinib]; conditions: max 2 µM
Outline: as §1

Doxorubicin = compound: COc1cccc2c1C(=O)c1c(O)c3c(c(O)c1C2=O)C[C@@](O)(C(=O)CO)C[C@@H]3O[C@H]1C[C@H](N)[C@H](O)[C@H](C)O1 [Doxorubicin]; conditions: max 1 µM
Outline: as §1

SRA737 = compound: N#Cc1cnc(Nc2cc(NC[C@H]3CNCCO3)c(C(F)(F)F)cn2)cn1 [SRA737]; conditions: max 10 µM
Outline: as §1

AZD5991 = compound: Cc1c2c(nn1C)CSCc1cc(n(C)n1)CSc1cc(c3ccccc3c1)OCCCc1c(C(=O)O)n(C)c3c-2c(Cl)ccc13 [AZD5991]; conditions: max 1 µM
Outline: as §1

Crizotinib = compound: C[C@@H](Oc1cc(-c2cnn(C3CCNCC3)c2)cnc1N)c1c(Cl)ccc(F)c1Cl [Crizotinib]; conditions: max 10 µM
Outline: as §1

MK-2206 = compound: NC1(c2ccc(-c3nc4ccn5c(=O)[nH]nc5c4cc3-c3ccccc3)cc2)CCC1 [MK-2206]; conditions: max 10 µM
Outline: as §1

AZD2811 = compound: CCN(CCO)CCCOc1ccc2c(Nc3cc(CC(=O)Nc4cccc(F)c4)[nH]n3)ncnc2c1 [AZD2811]; conditions: max 1 µM
Outline: as §1

AZD5153 = compound: COc1nnc2ccc(N3CCC(c4ccc(OCCN5CCN(C)C(=O)[C@H]5C)cc4)CC3)nn12 [AZD5153]; conditions: max 1 µM
Outline: as §1

AZD6738 = compound: C[C@@H]1COCCN1C2=NC(=NC(=C2)C3(CC3)[S@](=N)(=O)C)C4=C5C=CNC5=NC=C4 [AZD6738]; conditions: max 10 µM
Outline: as §1

[1] = compound: O=C(Nc1ccc2[nH]nc(-c3ccncc3)c2c1)[C@@H]1CCN(CC(=O)N2CCN(c3ccc(-c4ncccn4)cc3)CC2)C1; conditions: max 5 µM
Outline: as §1

AZD1390 = compound: CC(C)n1c(=O)n(C)c2cnc3cc(F)c(-c4ccc(OCCCN5CCCCC5)nc4)cc3c21 [AZD1390]; conditions: max 0.3 µM
Outline: as §1

AZD4320 = compound: CN(CC[C@H](CSC1=CC=CC=C1)NC2=C(C=C(C=C2)S(=O)(=O)NC(=O)C3=CC=C(C=C3)N4CCC(CC4)[C@H](C5=CC=CC=C5C6=CC=C(C=C6)Cl)O)S(=O)(=O)C(F)(F)F)CCO [AZD4320]; conditions: max 1 µM
Outline: as §1

Lapatinib = compound: CS(=O)(=O)CCNCc1ccc(-c2ccc3ncnc(Nc4ccc(OCc5cccc(F)c5)c(Cl)c4)c3c2)o1 [Lapatinib]; conditions: max 10 µM
Outline: as §1

Savolitinib = compound: C[C@@H](c1ccc2nccn2c1)n1nnc2ncc(-c3cnn(C)c3)nc21 [Savolitinib]; conditions: max 1 µM
Outline: as §1

AZD0156 = compound: CN(C)CCCOc1ccc(-c2ccc3ncc4c(c3c2)n(C2CCOCC2)c(=O)n4C)cn1 [AZD0156]; conditions: max 3 µM
Outline: as §1

Olaparib = compound: O=C(c1cc(Cc2n[nH]c(=O)c3ccccc23)ccc1F)N1CCN(C(=O)C2CC2)CC1 [Olaparib]; conditions: max 10 µM
Outline: as §1

Carboplatin = compound: C1CC(C1)(C(=O)[O-])C(=O)[O-].N.N.[Pt+2] [Carboplatin]; conditions: max 10 µM
Outline: as §1

Alisertib = compound: COc1cc(Nc2ncc3c(n2)-c2ccc(Cl)cc2C(c2c(F)cccc2OC)=NC3)ccc1C(=O)O [Alisertib]; conditions: max 10 µM
Outline: as §1

Paclitaxel = compound: CC(=O)O[C@H]1C(=O)[C@@]2(C)[C@H]([C@H](OC(=O)c3ccccc3)[C@]3(O)C[C@H](OC(=O)[C@H](O)[C@@H](NC(=O)c4ccccc4)c4ccccc4)C(C)=C1C3(C)C)[C@]1(OC(C)=O)CO[C@@H]1C[C@@H]2O [Paclitaxel]; conditions: max 3 µM
Outline: as §1

Venetoclax = compound: CC1(C)CCC(CN2CCN(c3ccc(C(=O)NS(=O)(=O)c4ccc(NCC5CCOCC5)c([N+](=O)[O-])c4)c(Oc4cnc5[nH]ccc5c4)c3)CC2)=C(c2ccc(Cl)cc2)C1 [Venetoclax]; conditions: max 1 µM
Outline: as §1

Selumetinib = compound: Cn1cnc2c(F)c(Nc3ccc(Br)cc3Cl)c(C(=O)NOCCO)cc21 [Selumetinib]; conditions: max 10 µM
Outline: as §1

Prexasertib = compound: COc1cccc(OCCCN)c1-c1cc(Nc2cnc(C#N)cn2)n[nH]1 [Prexasertib]; conditions: max 1 µM
Outline: as §1

Row | Cell Line | IC50, cell viability 72 h (AZD1775) | IC50, cell viability 72 h (Trametinib) | IC50, cell viability 72 h (AZD7648) | IC50, cell viability 72 h (5-Fluorouracil) | IC50, cell viability 72 h (Gemcitabine) | IC50, cell viability 72 h (Etoposide) | IC50, cell viability 72 h (AZD5363) | IC50, cell viability 72 h (Taselisib) | IC50, cell viability 72 h (Palbociclib) | IC50, cell viability 72 h (SN-38) | IC50, cell viability 72 h (SG3199) | IC50, cell viability 72 h (Gefitinib) | IC50, cell viability 72 h (AZD8186) | IC50, cell viability 72 h (Dasatinib) | IC50, cell viability 72 h (Doxorubicin) | IC50, cell viability 72 h (SRA737) | IC50, cell viability 72 h (AZD5991) | IC50, cell viability 72 h (Crizotinib) | IC50, cell viability 72 h (MK-2206) | IC50, cell viability 72 h (AZD2811) | IC50, cell viability 72 h (AZD5153) | IC50, cell viability 72 h (AZD6738) | IC50, cell viability 72 h [1] | IC50, cell viability 72 h (AZD1390) | IC50, cell viability 72 h (AZD4320) | IC50, cell viability 72 h (Lapatinib) | IC50, cell viability 72 h (Savolitinib) | IC50, cell viability 72 h (AZD0156) | IC50, cell viability 72 h (Olaparib) | IC50, cell viability 72 h (Carboplatin) | IC50, cell viability 72 h (Alisertib) | IC50, cell viability 72 h (Paclitaxel) | IC50, cell viability 72 h (Venetoclax) | IC50, cell viability 72 h (Selumetinib) | IC50, cell viability 72 h (Prexasertib)
1 | KNS-62 (Squamous Cell Lung Carcinoma) | > 3 µM | 0.276 µM | > 10 µM | > 20 µM | > 0.3 µM | > 10 µM | 6.59 µM | > 10 µM | > 10 µM | 0.0533 µM | > 0.001 µM | > 10 µM | > 10 µM | > 2 µM | > 1 µM | > 10 µM | > 1 µM | > 10 µM | > 10 µM | > 1 µM | 0.632 µM | > 10 µM | 4.14 µM | > 0.3 µM | > 1 µM | > 10 µM | > 1 µM | > 3 µM | > 10 µM | > 10 µM | > 10 µM | 0.273 µM | > 1 µM | > 10 µM | 0.342 µM
2 | L-363 (Plasma Cell Myeloma) | 0.231 µM | > 1 µM | > 10 µM | > 20 µM | 0.258 µM | > 10 µM | > 10 µM | 9.12 µM | > 10 µM | > 0.3 µM | > 0.001 µM | > 10 µM | > 10 µM | > 2 µM | > 1 µM | 1.22 µM | 0.134 µM | > 10 µM | 8.5 µM | > 1 µM | 0.381 µM | 2.77 µM | > 5 µM | > 0.3 µM | > 1 µM | > 10 µM | > 1 µM | > 3 µM | > 10 µM | > 10 µM | > 10 µM | 0.00531 µM | 0.694 µM | > 10 µM | 0.00532 µM
3 | MDA-MB-175-VII (Breast Carcinoma) | > 3 µM | 0.463 µM | > 10 µM | > 20 µM | > 0.3 µM | > 10 µM | 4.36 µM | 1.79 µM | > 10 µM | 0.11 µM | > 0.001 µM | 1.15 µM | > 10 µM | > 2 µM | > 1 µM | > 10 µM | > 1 µM | > 10 µM | 3.99 µM | > 1 µM | > 1 µM | > 10 µM | 0.794 µM | > 0.3 µM | > 1 µM | 0.514 µM | > 1 µM | > 3 µM | > 10 µM | > 10 µM | > 10 µM | > 3 µM | > 1 µM | > 10 µM | > 1 µM
4 | MG-63 (Osteosarcoma) | 2.81 µM | > 1 µM | > 10 µM | > 20 µM | 0.0473 µM | > 10 µM | 6.89 µM | 1.77 µM | > 10 µM | 0.0108 µM | > 0.001 µM | > 10 µM | 6.32 µM | 0.354 µM | > 1 µM | > 10 µM | > 1 µM | 7.07 µM | > 10 µM | > 1 µM | 0.256 µM | > 10 µM | 4.71 µM | > 0.3 µM | > 1 µM | > 10 µM | > 1 µM | > 3 µM | > 10 µM | > 10 µM | 2.03 µM | 0.00823 µM | > 1 µM | > 10 µM | 0.0727 µM
5 | MRK-nu-1 (Breast Carcinoma) | 1.66 µM | > 1 µM | > 10 µM | 18.4 µM | 0.0957 µM | 6.13 µM | > 10 µM | > 10 µM | > 10 µM | 0.0352 µM | > 0.001 µM | > 10 µM | > 10 µM | > 2 µM | 0.629 µM | > 10 µM | 0.0467 µM | > 10 µM | > 10 µM | 0.816 µM | > 1 µM | 9.31 µM | > 5 µM | > 0.3 µM | > 1 µM | > 10 µM | > 1 µM | > 3 µM | > 10 µM | > 10 µM | 3.63 µM | 0.00468 µM | > 1 µM | > 10 µM | 0.22 µM
